Values quoted from earlier work in patent US20130071871A1, “ENZYMATIC DETERMINATION OF LITHIUM IONS USING PHOSPHOGLUCOMUTASE” (SPECIALTY ASSAYS, INC., priority 2011, published 2013).

Q: With `[Li]` [Lithium] as the molecule, how does the highly toxic level (level chosen for the elevated lithium standard, well above the therapeutic range) read?
A: Its highly toxic level is about 3 mmol/L.

Q: And the “serum level too high, severe toxic side effects can occur” value (serum)?
A: Its value is over 1.2 mmol/L.
